Source: US6893821B2, “Agents that modulate DNA-PK activity and methods of use thereof” (The Regents of the University of California, priority 2000, dated 2005)
“Also recorded” adds a separate entry of the source.

How the values were obtained:
[1] = tested on: bone marrow derived macrophages (BMDM); assay: IL-6 and IL-12 levels in BMDM culture supernatants by ELISA; format: cell-based, mice
Protocol: Ku70^−/− and Ku80^−/− mice and their wild-type (wt) control on the 129 genetic background were generated by Dr. G. Li and bred at Memorial Sloan-Kettering Cancer Center (MSKCC), New York, N.Y. BMDM from wt, Ku70^−/− and Ku80^−/− mice (MSKCC) were prepared as was previously published (Martin-Orozco et al. (1999) Int. Immunol. 11:1111), and maintained in DMEM with 10% FBS, antibiotics and 20% L-cell medium and cultured for about 10 days to allow them to mature. BMDM were seeded (2.5×10^5/well in triplicate) on 96-well plates and treated with LPS (10 μg/ml), ISS-ODN (5 μg/ml) or M-ODN (5 μg/ml).
BMDM (2.5×10^5/well) from wt, or Ku70^−/− and Ku80^−/− mice were treated with LPS (1 μg/ml), ISS-ODN (5 μg/ml) or M-ODN (5 μg/ml) for 24 hours. IL-6 (A) or IL-12 (B) levels in the supernatants were determined by ELISA. Results are means±S.D, of 5 separate experiments for wt and Ku70^−/− and 3 separate experiments for Ku80^−/− mice. (C) BMDM were incubated with LPS (10 μg/ml) or ISS-ODN (5 μg/ml) for 6.5 hours. Total RNA was isolated and analyzed for the presence of IL-6, IL-12 and GAPDH messages by a Northern blot assay, as described in Example 1. Results are means±S.D. of 5 separate experiments for wt and Ku70^−/− and 3 separate experiments for Ku80^−/− mice.
DNA-PKcs^−/− and their wt control mice on the 129 genetic background were generated by Dr. G. C. Li and bred at Memorial Sloan-Kettering Cancer Center, New York, N.Y. IKKβ^−/− Tnfr1^−/− mice were generated by Drs. Z-W Li and Karin M. ATM^−/− mice on the C57BL/6 background were generated and bred by Dr. Y. Xu (UCSD) as was previously described (Xu et al.(1996) Genes Dev. 10:2411-2422) while their wild-type (wt) control were purchased from Jackson Laboratories (Bar Harbor, Me.). BMDMs from wt, DNA-PKcs^−/− mice, IKKβ^−/− Tnfr1^−/− and ATM^−/− mice were prepared as was previously published (Martin-Orozco et al. (1999) Intl. Immunol. 11:1111-1118), maintained in DMEM with 10% FBS, antibiotics and 20% L-cell medium and cultured for 7-10 days to allow them to mature. Prior to use BMDM were seeded (2.5×10^5/well in triplicate) in 96-well plates and than treated with LPS (1 μg/ml), ISS-ODN (5 μg/ml) or M-ODN (5 μg/ml), po-ISS-ODN (10 μg/ml) or po-ds-ISS-ODN (10 μg/ml), LPS-free, ultra pure bacterial DNA (E. coli, Sigma) (15 μg/ml) or methylated bacterial DNA or LPS-free, ultra pure calf thymus DNA (Sigma) (15 μg/ml). Methylation of bacterial DNA was performed by SssI methylase (Biolab, Boston, Mass.) (15 μg/ml) following manufacturer's instruction. Where indicated the PI3K inhibitor wortmannin (Wm), at various concentrations, was added to ISS-ODN or LPS stimulated BMDMs. After 24 hours in culture, the supernatants were collected and assayed for IL-6 and IL-12 levels by ELISA kits (PharMingen, San Diego, Calif.).

[2] = tested on: IL-6, IL-12 message in liver; assay: RT-PCR for IL-6 and IL-12 message in livers of mice injected i.v. with ODN; format: in vivo; conditions: mice i.v. 200 μl (1 μg/μl in PBS) of ss or ds ODN; 2.5 hours
[3] = molecular target: T1, Ku antigen (Ku70/Ku80 heterodimer) (Mus musculus, UniProt P23475+P27641); assay: EMSA inhibition study: cold ODN vs [32P]-labeled ds-ISS-ODN binding to Ku (affinity column fraction 20)
T1 construct: from tissue; host or cells: mouse liver (BALB/c)
T1 sequence (P23475 2-608 limits assumed): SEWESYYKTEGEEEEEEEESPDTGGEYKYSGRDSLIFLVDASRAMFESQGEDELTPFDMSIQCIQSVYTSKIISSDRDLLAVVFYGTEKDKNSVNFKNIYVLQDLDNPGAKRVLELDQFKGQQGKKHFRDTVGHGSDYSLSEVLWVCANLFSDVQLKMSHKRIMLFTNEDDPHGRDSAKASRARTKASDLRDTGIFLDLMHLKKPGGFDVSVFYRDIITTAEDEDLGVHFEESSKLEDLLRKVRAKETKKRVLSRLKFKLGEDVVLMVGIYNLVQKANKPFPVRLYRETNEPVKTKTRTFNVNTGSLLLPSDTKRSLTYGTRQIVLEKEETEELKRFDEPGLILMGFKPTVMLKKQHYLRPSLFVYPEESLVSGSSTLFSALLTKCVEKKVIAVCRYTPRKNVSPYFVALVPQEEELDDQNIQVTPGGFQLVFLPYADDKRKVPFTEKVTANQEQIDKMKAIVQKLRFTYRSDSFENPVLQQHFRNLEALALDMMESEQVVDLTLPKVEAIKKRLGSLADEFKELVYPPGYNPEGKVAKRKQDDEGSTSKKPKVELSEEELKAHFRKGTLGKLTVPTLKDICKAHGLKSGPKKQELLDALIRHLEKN
T1 sequence (P27641 whole entry): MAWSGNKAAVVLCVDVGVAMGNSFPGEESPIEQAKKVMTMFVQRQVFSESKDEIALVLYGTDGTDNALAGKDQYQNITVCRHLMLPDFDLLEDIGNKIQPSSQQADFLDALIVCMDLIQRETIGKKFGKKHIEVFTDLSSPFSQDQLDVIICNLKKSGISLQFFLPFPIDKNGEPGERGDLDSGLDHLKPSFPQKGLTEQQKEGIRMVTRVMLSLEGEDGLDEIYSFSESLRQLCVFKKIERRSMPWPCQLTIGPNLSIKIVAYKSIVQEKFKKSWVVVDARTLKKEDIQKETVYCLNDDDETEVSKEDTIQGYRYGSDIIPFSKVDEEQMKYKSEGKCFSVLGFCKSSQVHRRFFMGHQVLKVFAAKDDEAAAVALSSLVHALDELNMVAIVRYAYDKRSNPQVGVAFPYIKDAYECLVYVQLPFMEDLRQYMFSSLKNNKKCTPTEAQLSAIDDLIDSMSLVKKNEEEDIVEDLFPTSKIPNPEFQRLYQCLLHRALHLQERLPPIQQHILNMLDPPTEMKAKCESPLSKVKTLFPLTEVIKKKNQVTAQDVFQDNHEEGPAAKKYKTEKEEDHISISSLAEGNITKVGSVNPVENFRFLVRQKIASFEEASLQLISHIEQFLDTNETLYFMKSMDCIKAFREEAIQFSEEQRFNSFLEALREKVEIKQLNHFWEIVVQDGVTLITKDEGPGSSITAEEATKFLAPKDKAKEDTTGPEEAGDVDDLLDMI
Protocol: Purification of the ISS binding protein was accomplished by sequential ion exchange, heparin and ISS-ODN affinity chromatography, as follows. Due to the relative small tissue weight per spleen, liver lysate was used after confirming its reactivity to in vivo ISS injection, as described above. Crude liver extracts from 220 mice (BALB/c, Jackson Lab., Bar Harbour, Me.) or 15 New Zealand White rabbits (Simunek, Vista, Calif.) were prepared in homogenization buffer (20 mM HEPES, pH 7.6, 250 mM KCl, 0.1 mM EDTA, 0.5 mM EGTA, 20% glycerol) with 250 mM KCl and protease and phosphatase inhibitors and then centrifuged at 100,000×g for 1.5 hours at 4° C. The supernatant (400 ml) was filtered and loaded onto a Porous 20 QE column (17 ml, Pharmacia). Two μl (10 μg) of each fraction were used in a gel retardation assay to identify the location of proteins containing DNA binding activity using [^32P]-labeled ds-ISS-ODN as a probe. Fractions containing ISS-ODN binding activity were pooled (450 ml), buffered exchanged to low salt (50 mM KCl) and loaded onto a Heparin column (2 ml). The active fractions were subsequently loaded onto a 2 ml ds-ISS-ODN affinity column [CNBr-activated Sepharose 4B (Pharmacia) coupled to 320 μg of ds-ISS-ODNs with the sequence 5′-[…]-3′; SEQ ID NO: 21]. The column was washed with 8 ml of homogenization buffer containing 50 mM KCl and the bound proteins were eluted with a 20 ml linear gradient of 50 mM to 1.55 M KCl. One-ml fractions were collected and 2 μl of each were used to test for DNA binding activity. The active fractions were concentrated, separated by SDS-PAGE and stained with Coomassie Blue. The appearance of two bands with estimated molecular weights of 70 KDa and 80 KDa correlated with the DNA binding activity. Sequence analysis (Harvard Microsequencing Facility) of peptides derived from the two bands identified Ku70 and Ku80, respectively.
Mouse liver extracts were purified through anion (QE), heparin and ISS-based affinity chromatography, as described above. Two μl of each fraction (10 μg) were incubated with [^32 P]-labeled ds-ISS-ODN at 4° C. for 30 minutes. The samples were separated on a 5% acrylamide gel and the protein-DNA complexes were detected by autoradiography. […] The active fractions were separated by sodium dodecyl sulfate-polyacrylamide gel electrophoresis (SDS-PAGE), stained with Coomassie blue and micro-sequenced.
To verify the binding specificity of the Ku protein to ISS-ODN, inhibition studies were performed using cold ss or ds ISS or mutated (M, i.e., control) ODNs. Ten μg of fraction 20 from the affinity column were incubated with [^32P]-labeled ISS-ODN in the presence of unlabeled (0.1, 0.2 and 0.4 μg, respectively) ss-ISS-ODN (lanes 3-5), ds-ISS-ODN (lanes 7-9), ss-M-ODN (lanes 11-13) or ds-M-ODN (lanes 15-17).

5′-TGACTGTGAACGTTCGAGATGA-3′ [ISS-ODN]
IL-6 and IL-12 induction ([1]; ATM-deficient BMDM): normal induction | IL-6 and IL-12 induction ([1]; DNA-PKcs-deficient BMDM in comparison to wt): Very low levels | IL-6 and IL-12 induction ([1]; IKKβ-/- Tnfr-/- BMDM): significantly reduced | IL-6 and IL-12 secretion ([1]; Ku70-/- and Ku80-/- BMDM as compared to wt, 24 hours): very low levels | IL-6 and IL-12 message in liver (RT-PCR) [2]: readily detected; also recorded: cytokine induction | interaction of Ku with ODN [3]: specific interaction
